Reference: ChEMBL document CHEMBL3244218, “beta-Adrenergic blocking agents with acute antihypertensive activity” (1979)

Assays:
Rattus norvegicus [1] = experiment: Antihypertensive activity in spontaneously hypertensive rat assessed as maximum fall in mean arterial pressure at 1.25 mg/kg, po; format: functional, Artery
Rattus norvegicus [2] = experiment: Antihypertensive activity in spontaneously hypertensive rat assessed as maximum fall in mean arterial pressure at 20 mg/kg, po; format: functional, Artery
Canis familiaris [3] = experiment: Peripheral vasodilating activity in mongrel dog assessed as increase in iliac blood flow at 1600 ug, ia in presence of isoproterenol and 2000 ug/kg timolol; format: functional, Canis lupus familiaris, Artery
Canis familiaris [4] = species: Canis familiaris; experiment: Peripheral vasodilating activity in mongrel dog assessed as increase in iliac blood flow at 1600 ug, ia; format: functional, Canis lupus familiaris, Artery
Canis familiaris [5] = experiment: In-vivo beta-adrenergic blocking activity in iv dosed mongrel dog assessed as blockade of isoproterenol-induced hypotension by measuring mean arterial pressure; format: functional; details: Canis lupus familiaris, Artery
Canis familiaris [6] = experiment: In-vivo beta-adrenergic blocking activity in iv dosed mongrel dog assessed as blockade of isoproterenol-induced tachycardia by measuring heart rate; format: functional; details: Canis lupus familiaris
Canis familiaris [7] = experiment: In-vivo beta-adrenergic blocking activity in iv dosed mongrel dog assessed as blockade of isoproterenol-induced bronchodilation by measuring pulmonary pressure; format: functional; details: Canis lupus familiaris
Rattus norvegicus [8] = experiment: Antihypertensive activity in spontaneously hypertensive rat assessed as maximum fall in mean arterial pressure at 5 mg/kg, po; format: functional, Artery
Canis familiaris [9] = experiment: Peripheral vasodilating activity in mongrel dog assessed as increase in iliac blood flow at 1600 ug, ia in presence of isoproterenol and 500 ug/kg timolol; format: functional, Canis lupus familiaris, Artery
Canis familiaris [10] = experiment: Peripheral vasodilating activity in mongrel dog assessed as increase in iliac blood flow at 1600 ug, ia in presence of isoproterenol and 1000 ug/kg timolol; format: functional, Canis lupus familiaris, Artery
Rattus norvegicus [11] = experiment: Antihypertensive activity in spontaneously hypertensive rat assessed as maximum fall in mean arterial pressure at 0.312 mg/kg, po; format: functional, Artery
Canis familiaris [12] = species: Canis familiaris; experiment: Peripheral vasodilating activity in mongrel dog assessed as increase in iliac blood flow at 250 ug, ia; format: functional, Canis lupus familiaris, Artery

SMILES | Activity (Rattus norvegicus [1]) | Activity (Rattus norvegicus [2]) | Activity (Canis familiaris [3]) | Activity (Canis familiaris [4]) | ED50 (Canis familiaris [5]) | ED50 (Canis familiaris [6]) | ED50 (Canis familiaris [7]) | Activity (Rattus norvegicus [8]) | Activity (Canis familiaris [9]) | Activity (Canis familiaris [10]) | Activity (Rattus norvegicus [11]) | Activity (Canis familiaris [12])
CC(C)(C)NC[C@H](O)COc1ccc(-c2ncc[nH]2)cc1 | 19 mmHg | 41 mmHg | 0 mL/min | 30 mL/min | > 1 mg/kg | 0.067 mg/kg | – | – | – | – | – | –
CC(=O)Nc1ccc(OCC(O)CNC(C)C)cc1 (centres undefined) [PRACTOLOL] | – | – | – | – | 1 mg/kg | 0.115 mg/kg | 1.08 mg/kg | – | – | – | – | –
CC(C)(C)NCC(O)COc1ccc(-c2ncc(C(F)(F)F)[nH]2)c(Cl)c1Cl (racemic) | – | 49 mmHg | – | – | – | – | – | 16 mmHg | – | – | – | –
Cc1c[nH]c(-c2ccc(OCC(O)CNC(C)(C)C)cc2)n1 (racemic) | – | 27 mmHg | 62 mL/min | 101 mL/min | > 1 mg/kg | 0.106 mg/kg | – | 6 mmHg | 75 mL/min | – | – | –
CC(C)(C)NCC(O)COc1ccc(-c2ncc(C(F)(F)F)[nH]2)c2c1CCCC2 (racemic) | – | 22 mmHg | – | -15 mL/min | 0.167 mg/kg | 0.228 mg/kg | 0.1 mg/kg | – | – | -10 mL/min | – | –
Cc1cc(OC[C@@H](O)CNC(C)(C)C)ccc1-c1ncc(C(F)(F)F)[nH]1 | 36 mmHg | – | – | 36 mL/min | 0.0927 mg/kg | 0.0157 mg/kg | 0.0364 mg/kg | 51 mmHg | – | 39 mL/min | – | –
CC(C)(C)NCC(O)COc1ccc(-c2ncc(-c3ccc(Cl)c(Cl)c3)[nH]2)cc1 (racemic) | 36 mmHg | 49 mmHg | 15 mL/min | 56 mL/min | 0.117 mg/kg | 0.123 mg/kg | 0.097 mg/kg | 35 mmHg | – | – | – | –
CC(C)(C)NCC(O)COc1ccc(-c2ncc(-c3ccccn3)[nH]2)cc1 (racemic) | 6 mmHg | 40 mmHg | – | – | – | – | – | 27 mmHg | – | – | – | –
COc1ccc(-c2cnc(-c3ccc(OCC(O)CNC(C)(C)C)cc3)[nH]2)cc1 (racemic) | 21 mmHg | – | 20 mL/min | 25 mL/min | > 1 mg/kg | 0.04 mg/kg | – | 29 mmHg | – | – | 12 mmHg | –
CC(C)(C)NCC(O)COc1ccc(-c2nc(-c3cccs3)c[nH]2)cc1 (racemic) | 36 mmHg | 58 mmHg | 10 mL/min | 28 mL/min | 0.635 mg/kg | 0.016 mg/kg | – | 35 mmHg | – | – | 12 mmHg | –
CC(C)(C)NCC(O)COc1ccc(-c2ncc(C(F)(F)F)[nH]2)c2ccccc12 (racemic) | – | 40 mmHg | – | 35 mL/min | > 1 mg/kg | 0.186 mg/kg | – | 21 mmHg | – | 40 mL/min | – | –
CC(C)(C)NC[C@H](O)COc1ccc(-c2ncc(-c3cccs3)[nH]2)cc1.O=C(O)/C=C\C(=O)O | 20 mmHg | – | 15 mL/min | 23 mL/min | 0.234 mg/kg | 0.014 mg/kg | 0.433 mg/kg | 33 mmHg | – | – | 9 mmHg | –
CC(C)(C)NCC(O)COc1ccc(-c2ncc(C(F)(F)F)[nH]2)c(Cl)c1 (racemic) | 28 mmHg | – | – | 2 mL/min | 0.552 mg/kg | 0.027 mg/kg | 0.054 mg/kg | 36 mmHg | – | – | – | -2 mL/min
CC(C)(C)NCC(O)COc1ccc(-c2ncc(-c3ccc(F)cc3)[nH]2)cc1 (racemic) | – | 13 mmHg | 32 mL/min | 42 mL/min | 0.139 mg/kg | 0.019 mg/kg | – | – | – | – | – | –
Cc1cnc(-c2ccc(OC[C@@H](O)CNC(C)(C)C)cc2)[nH]1.O=C(O)/C=C\C(=O)O | 24 mmHg | 41 mmHg | 32 mL/min | 59 mL/min | 1 mg/kg | 0.03 mg/kg | 0.277 mg/kg | 19 mmHg | – | – | – | –
Cc1c(OCC(O)CNC(C)(C)C)ccc(-c2ncc(C(F)(F)F)[nH]2)c1C (racemic) | 27 mmHg | 30 mmHg | – | 23 mL/min | 0.582 mg/kg | 0.071 mg/kg | 0.055 mg/kg | 24 mmHg | – | 19 mL/min | – | –
